In the supplement of paper PMC10307832:

Tests used:
Assay in all cases: relative viability (nuclei count vs DMSO), 5 days (fraction); higher = more cells survive
[1] = compound: COc1cc(Nc2ncc3c(n2)-c2ccc(Cl)cc2C(c2c(F)cccc2OC)=NC3)ccc1C(=O)O [Alisertib] + N=C(N)NC(=N)NCCc1ccccc1 [Phenformin] (partner 250 µM)
Outline: (§1)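 Each reported value is a median over duplicate plates. It expresses relative viability: treated-well nuclei count divided by vehicle-well nuclei count. Lung cancer cell lines in 1536-well plates were dosed by pin tool a day after seeding, alone with one drug or with a fixed anchor-drug dose plus five library-drug doses (not always all listed) in √10 steps, and nuclei were counted after 5 days.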

[2] = compound: COc1cc(Nc2ncc3c(n2)-c2ccc(Cl)cc2C(c2c(F)cccc2OC)=NC3)ccc1C(=O)O [Alisertib] + CS(=O)(=O)N1CCN(Cc2cc3nc(-c4cccc5[nH]ncc45)nc(N4CCOCC4)c3s2)CC1 [Pictilisib] (partner 1 µM)
Outline: as §1

[3] = compound: COc1cc(Nc2ncc3c(n2)-c2ccc(Cl)cc2C(c2c(F)cccc2OC)=NC3)ccc1C(=O)O [Alisertib] + NC(=O)Nc1cc(-c2cccc(F)c2)sc1C(=O)N[C@H]1CCCNC1 [AZD7762] (partner 0.2 µM)
Outline: as §1

[4] = compound: COc1cc(Nc2ncc3c(n2)-c2ccc(Cl)cc2C(c2c(F)cccc2OC)=NC3)ccc1C(=O)O [Alisertib] + Cc1nc(NC(=O)N2CCC[C@H]2C(N)=O)sc1-c1ccnc(C(C)(C)C(F)(F)F)c1 [Alpelisib] (partner 2 µM)
Outline: as §1

Row | Cell Line | relative viability ([1]; first compound 0.005 µM) | relative viability ([1]; first compound 0.01581 µM) | relative viability ([1]; first compound 0.05 µM) | relative viability ([1]; first compound 0.1581 µM) | relative viability ([1]; first compound 0.5 µM) | relative viability ([2]; first compound 0.005 µM) | relative viability ([2]; first compound 0.01581 µM) | relative viability ([2]; first compound 0.05 µM) | relative viability ([2]; first compound 0.1581 µM) | relative viability ([2]; first compound 0.5 µM) | relative viability ([3]; first compound 0.005 µM) | relative viability ([3]; first compound 0.01581 µM) | relative viability ([3]; first compound 0.05 µM) | relative viability ([3]; first compound 0.1581 µM) | relative viability ([3]; first compound 0.5 µM) | relative viability ([4]; first compound 0.005 µM) | relative viability ([4]; first compound 0.01581 µM) | relative viability ([4]; first compound 0.05 µM) | relative viability ([4]; first compound 0.1581 µM) | relative viability ([4]; first compound 0.5 µM)
1 | 201T | 0.38 | 0.435 | 0.441 | 0.238 | 0.256 | 0.623 | 0.676 | 0.671 | 0.326 | 0.327 | 0.618 | 0.753 | 0.675 | 0.46 | 0.277 | 0.985 | 0.997 | 0.964 | 0.783 | 0.378
2 | A-427 | 0.298 | 0.187 | 0.117 | 0.132 | 0.121 | 0.615 | 0.451 | 0.234 | 0.147 | 0.172 | 0.602 | 0.362 | 0.206 | 0.196 | 0.212 | 1.03 | 0.922 | 0.173 | 0.165 | 0.14
3 | ABC-1 | 0.269 | 0.225 | 0.185 | 0.218 | 0.195 | 0.674 | 0.606 | 0.578 | 0.277 | 0.232 |  | 0.594 | 0.648 | 0.307 | 0.272 | 0.979 | 0.724 | 0.929 | 0.475 | 0.223
4 | BEN | 0.283 | 0.299 | 0.233 | 0.207 | 0.184 | 0.554 | 0.508 | 0.276 | 0.24 | 0.224 | 0.57 | 0.592 | 0.359 | 0.335 | 0.389 | 1.05 | 0.923 | 0.37 | 0.232 | 0.218
5 | CAL-12T | 0.434 | 0.253 | 0.15 | 0.142 | 0.169 | 0.322 | 0.294 | 0.134 | 0.246 | 0.218 | 0.528 | 0.314 | 0.183 | 0.224 | 0.201 | 1.19 | 0.382 | 0.217 | 0.249 | 0.183
6 | COR-L23 | 0.351 | 0.388 | 0.243 | 0.137 | 0.109 | 0.662 | 0.632 | 0.248 | 0.137 | 0.0917 |  |  |  |  |  | 0.777 | 0.697 | 0.369 | 0.155 | 0.0816
7 | COR-L 105 | 0.454 | 0.493 | 0.335 | 0.234 | 0.246 | 0.44 | 0.34 | 0.336 | 0.264 | 0.281 |  |  |  |  |  | 0.741 | 0.849 | 0.71 | 0.343 | 0.245
8 | Calu-6 |  |  |  |  |  | 0.726 | 0.379 | 0.164 | 0.171 | 0.153 |  |  |  |  |  | 0.771 | 0.566 | 0.249 | 0.188 | 0.191
9 | ChaGo-K-1 | 0.426 | 0.382 | 0.418 | 0.151 | 0.139 | 0.632 | 0.457 | 0.267 | 0.283 | 0.184 | 0.827 | 0.755 | 0.633 | 0.213 | 0.166 |  |  |  |  | 
10 | EBC-1 |  |  |  |  |  | 0.394 | 0.282 | 0.112 | 0.158 | 0.121 |  |  |  |  |  | 0.578 | 0.597 | 0.272 | 0.225 | 0.153
11 | EKVX | 0.209 | 0.209 | 0.135 | 0.129 | 0.131 | 0.405 | 0.418 | 0.266 | 0.157 | 0.15 | 0.554 | 0.46 | 0.278 | 0.132 | 0.172 | 0.819 | 0.811 | 0.49 | 0.215 | 0.185
12 | EMC-BAC-2 | 0.389 | 0.343 | 0.27 | 0.245 | 0.197 | 0.516 | 0.414 | 0.291 | 0.271 | 0.233 | 0.834 | 0.569 | 0.591 | 0.313 | 0.28 | 0.701 | 0.567 | 0.296 | 0.259 | 0.143
13 | EPLC-272H | 0.251 | 0.238 | 0.284 | 0.101 | 0.12 | 0.281 | 0.244 | 0.227 | 0.14 | 0.124 | 0.286 | 0.308 | 0.196 | 0.12 | 0.106 | 0.858 | 0.838 | 0.486 | 0.266 | 0.133
14 | H3255 | 0.329 | 0.338 | 0.313 | 0.299 | 0.294 | 0.472 | 0.447 | 0.286 | 0.165 | 0.152 | 0.712 | 0.952 | 0.613 | 0.274 | 0.234 | 0.797 | 0.687 | 0.463 | 0.252 | 0.199
15 | HARA | 0.398 | 0.469 | 0.358 | 0.187 | 0.133 | 0.283 | 0.426 | 0.511 | 0.112 | 0.0803 | 0.28 | 0.567 | 0.339 | 0.217 | 0.0911 | 0.86 | 0.878 | 0.363 | 0.129 | 0.0864
16 | HCC-15 | 0.401 | 0.313 | 0.178 | 0.108 | 0.1 | 0.586 | 0.64 | 0.233 | 0.117 | 0.123 | 0.994 | 1.16 | 1.12 | 0.355 | 0.133 | 0.875 | 0.662 | 0.229 | 0.148 | 0.106
17 | HCC-44 | 0.146 | 0.193 | 0.134 | 0.0875 | 0.0665 | 0.623 | 0.598 | 0.572 | 0.153 | 0.159 | 0.888 | 0.992 | 0.966 | 0.588 | 0.439 | 0.759 | 0.716 | 0.458 | 0.17 | 0.0925
18 | HCC-78 | 0.61 | 0.541 | 0.321 | 0.281 | 0.26 | 0.172 | 0.253 | 0.168 | 0.145 | 0.0967 | 0.544 | 0.569 | 0.363 | 0.23 | 0.28 | 0.319 | 0.254 | 0.162 | 0.133 | 0.142
